The target of the test is T1, Tyrosinase (Agaricus bisporus, UniProt O42713).
T1 sequence (O42713 whole entry): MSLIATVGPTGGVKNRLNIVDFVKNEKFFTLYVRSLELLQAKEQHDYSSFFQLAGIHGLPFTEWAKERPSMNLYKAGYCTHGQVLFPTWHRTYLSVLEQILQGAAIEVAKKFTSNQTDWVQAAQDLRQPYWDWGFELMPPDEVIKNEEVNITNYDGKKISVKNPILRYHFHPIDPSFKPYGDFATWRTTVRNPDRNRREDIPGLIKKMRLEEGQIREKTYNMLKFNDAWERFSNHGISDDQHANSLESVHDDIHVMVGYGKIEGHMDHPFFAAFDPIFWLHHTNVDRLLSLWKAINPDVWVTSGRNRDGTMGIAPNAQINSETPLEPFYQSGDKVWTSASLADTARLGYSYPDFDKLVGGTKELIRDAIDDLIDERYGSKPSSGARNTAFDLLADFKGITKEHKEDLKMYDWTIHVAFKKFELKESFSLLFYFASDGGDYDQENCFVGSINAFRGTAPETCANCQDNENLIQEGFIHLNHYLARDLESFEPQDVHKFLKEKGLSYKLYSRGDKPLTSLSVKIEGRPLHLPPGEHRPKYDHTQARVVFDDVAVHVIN

The source of these data is ChEMBL document CHEMBL1157413, “Pyronane monoterpenoids from the fruit of Gardenia jasminoides” (J Nat Prod, 2008).

Each structure is given as a SMILES string.

For orientation: IC50 means the concentration that gives 50% inhibition. Read a low IC50 as greater potency.

Description: Inhibition of mushroom tyrosinase activity after 10 mins

In the case of `CC1(C)CC(=O)C=C(CO)[C@H]1CO` [JASMINODIOL], the IC50 came to 2200 µM.
